Laboratory results as given in US12377067B2, “Methods of treating PAH with combinations of ralinepag and other agents” (Arena Pharmaceuticals, Inc., priority 2016, dated 2025).
Where two headings read alike, the source gives them in different places.

Test system: human PASMCs from PAH patients
Test: Cell proliferation assay (MTS), serum-induced growth
Assay type: cell-based
Settings: for Emax: read-out: Emax (% Inhibition); for times more potent than ralinepag alone: individual fits (Table 1)

O=C(O)COC[C@H]1CC[C@H](COC(=O)N(c2ccccc2)c2ccc(Cl)cc2)CC1 [ralinepag, 2-(((1r,4r)-4-(((4-chlorophenyl)(phenyl)carbamoyloxy)methyl)cyclohexyl)methoxy)acetic acid]
inhibition at 0.001 µM (Homo sapiens, PASMC, 1 nM ralinepag in the presence of 100 nM sildenafil): 27%
inhibition at 0.01 µM (Homo sapiens, PASMC, 10 nM ralinepag combined with 100 nM riociguat): 45%
inhibition at 10 µM (Homo sapiens, PASMC, 10 μM ralinepag in the presence of 100 nM sildenafil): 56%
inhibition at 10 µM (Homo sapiens, PASMC, 10 μM ralinepag in the presence of 100 nM treprostinil): 69%
EC50 (Homo sapiens, PASMC, 96 h, log EC50 printed with negative sign, ralinepag alone or + 100 nM drug, from individual fits, 9% FBS + 0.1% DMSO, 4 days, read-out: Log EC50 (n = 5) (converted)): 0.0251 µM
EC50 (Homo sapiens, PASMC, 96 h, log EC50 printed with negative sign, ralinepag alone or + 100 nM drug, from mean fits, 9% FBS + 0.1% DMSO, 4 days, read-out: Log EC50 (n = 5) (converted)): 0.0447 µM
Emax (Homo sapiens, PASMC, 96 h, ralinepag alone or + 100 nM drug, from individual fits, 9% FBS + 0.1% DMSO, 4 days): 58.2 ± 4.1%
EC50 (Homo sapiens, PASMC, 96 h, ralinepag alone or + 100 nM drug, from mean fits, 9% FBS + 0.1% DMSO, 4 days, read-out: EC50): 0.044 µM
Emax (Homo sapiens, PASMC, 96 h, ralinepag alone or + 100 nM drug, from mean fits, 9% FBS + 0.1% DMSO, 4 days): 59.6 ± 17.3%
EC50 (Homo sapiens, PASMC, ralinepag in the presence of 100 nM sildenafil, individual fits, read-out: EC50): 0.005 µM
dose of ralinepag at which cell proliferation was inhibited (combined with 100 nM macitentan): 0.1 nM
dose of ralinepag at which significant inhibition of cell growth occurred (combined with 100 nM treprostinil): 0.1 nM
fold lower dose of ralinepag giving significant inhibition of cell growth (combined with 100 nM treprostinil vs ralinepag alone): 10 fold
antiproliferative effect compared to ralinepag alone (in the presence of 100 nM bosentan, mean data): not more effective
antiproliferative effect compared to ralinepag alone (in the presence of 100 nM macitentan, mean data): not significantly more effective
fold lower dose of ralinepag giving significant inhibition of cell growth (in the presence of 100 nM riociguat vs ralinepag alone): 100 fold
antiproliferative effect compared to ralinepag alone (in the presence of 100 nM riociguat, 0.01-10,000 nM ralinepag, mean data): significantly more effective at 10 nM and above
times more potent than ralinepag alone (in the presence of 100 nM riociguat): ~2.5 times
potency enhancement (in the presence of 100 nM riociguat, mean fits (Table 2)): 8 fold
antiproliferative effect compared to ralinepag alone (in the presence of 100 nM sildenafil, 0.01-10,000 nM ralinepag): significantly (P<0.001, two-way ANOVA) more effective
times more potent than ralinepag alone (in the presence of 100 nM sildenafil): ~5 times
maximum response compared to ralinepag alone (in the presence of riociguat or treprostinil (100 nM)): significantly greater maximum response
concentration at which ralinepag started to significantly inhibit cell proliferation (ralinepag alone, not lowered by 100 nM bosentan): InM
